Entries after “also recorded” stand apart in the source; their conditions may differ. Like-named read-outs stand apart in the source and are kept apart here.
Experiments:
[1] = tested on: astacin; conditions: cited from earlier work
[2] = tested on: D. immitis larvae; assay: Effect of protease inhibitors on larval molting (L3 cultured in NI medium); type: cell-based, Dirofilaria immitis; conditions: for % molt: L3 larvae, 72 hours, 37° C.; for inhibition at 1000 µM / inhibition at 2500 µM / inhibition at 5000 µM: Dirofilaria immitis, 72 h, read-out: % reduction (of molt vs control)

c1cnc2c(c1)ccc1cccnc12 [1,10-phenanthroline]
inhibition of astacin activity [1]: inhibited

CC(C)C[C@H](NC(=O)[C@@H](O)[C@H](N)Cc1ccccc1)C(=O)O [Bestatin]
% molt ([2]; 1.0 mM inhibitor): 60.0%
% molt ([2]; 2.5 mM inhibitor): 34.8%
% molt ([2]; 5.0 mM inhibitor): 4.9%
inhibition at 1000 µM [2]: 27.3%
inhibition at 2500 µM [2]: 57.9%
inhibition at 5000 µM [2]: 94.1%
movement of treated larvae compared to controls ([2]; observed daily throughout the study): moved much more slowly
ability of the larvae to molt ([2]; treatment of L3, 1 to 5 mM): inhibit molting; also recorded: significantly reduces the ability of the larvae to molt

O=C(O)CN(CCN(CC(=O)O)CC(=O)O)CC(=O)O [EDTA, ethylene diamine tetraacetic acid]
inhibition of astacin activity [1]: inhibited

CC(C)C[C@H](NP(=O)(O)O[C@@H]1O[C@@H](C)[C@H](O)[C@@H](O)[C@H]1O)C(=O)N[C@@H](Cc1c[nH]c2ccccc12)C(=O)O [Phosphoramidon]
ability of the larvae to molt [2]: inhibit molting; also recorded: significantly reduces the ability of the larvae to molt
condition of treated larvae [2]: in poor shape
movement of treated larvae compared to controls [2]: very active
inhibition at 1000 µM [2]: 48.4%
inhibition at 2500 µM [2]: 85.1%
inhibition at 5000 µM [2]: 100%
inhibition of astacin activity [1]: not by phosphoramidon
